Measurements reported in patent US20240131173A1, “PROTACS WITH TRANSCRIPTION FACTOR TARGETING MOIETIES” (Beth Israel Deaconess Medical Center, Inc., priority 2021, published 2024).
Entries after “also recorded” stand apart in the source; their conditions may differ.

Tests used:
p65 [1] = molecular target: T1, p65 (Homo sapiens, UniProt Q04206); experiment: Streptavidin-biotin pulldown / competition assay of NF-κB-ODN with Flag-p65; format: binding; conditions: excess competitor
Protocol: To determine whether NF-κB-ODN binds with NF-κB properly, we also synthesized a biotin-modified version of NF-κB-ODN (hereafter termed as Biotin-NF-κB-ODN, FIGS. 3A-3C).
HEK293T cells that ectopically expressed either Flag-p65 or HAE2F1 were lysed by EBC buffer (50 mM Tris pH 7.5, 120 mM NaCl, 0.5% NP-40) supplemented with protease inhibitors (Pierce) and phosphatase inhibitors (phosphatase inhibitor cocktail set I and II, Calbiochem). The protein concentrations of the lysates were measured using the Bio-Rad protein assay reagent on a Beckman Coulter DU-800 spectrophotometer. The cell lysates (1 mg) were further incubated with biotin-ODN at 4 °C for 3 hours, followed by adding 10 μL of Streptavidin agarose beads (Thermo Fisher) for another 1 hour. The beads were washed 4 times with NETN buffer (100 mM NaCl, 20 mM Tris-Cl, pH 8.0, 0.5 mM EDTA, 0.5% NP-40), boiled in SDS loading buffer and further separated by 10% SDS-PAGE and blotted with individual antibody.
Target sequence in this assay (Q04206 whole entry): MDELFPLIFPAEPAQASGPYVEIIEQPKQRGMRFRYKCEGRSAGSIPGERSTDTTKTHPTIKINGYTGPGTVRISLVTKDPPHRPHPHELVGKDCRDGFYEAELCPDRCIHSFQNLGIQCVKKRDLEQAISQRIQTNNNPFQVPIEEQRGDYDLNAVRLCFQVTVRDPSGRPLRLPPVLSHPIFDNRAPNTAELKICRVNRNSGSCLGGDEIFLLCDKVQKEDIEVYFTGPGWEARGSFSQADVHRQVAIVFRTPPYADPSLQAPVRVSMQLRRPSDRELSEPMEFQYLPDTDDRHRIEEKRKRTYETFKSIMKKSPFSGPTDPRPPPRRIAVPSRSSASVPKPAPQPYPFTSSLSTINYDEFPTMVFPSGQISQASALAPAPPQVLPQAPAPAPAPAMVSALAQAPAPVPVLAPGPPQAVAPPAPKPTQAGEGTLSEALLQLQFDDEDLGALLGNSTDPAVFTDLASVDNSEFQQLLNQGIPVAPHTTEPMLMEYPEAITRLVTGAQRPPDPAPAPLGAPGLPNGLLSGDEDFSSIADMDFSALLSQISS

HeLa cells [2] = experiment: Clonal (colony) formation assay; format: cell-based, human; conditions: HeLa cells
Protocol: (§1) For cell growth curve assay, HeLa cells (10, 000/well) in 12-well plate were transfected with individual TF-PROTAC, then the cells were trypsined and the cell number were counted at indicated time. For the clonal formation assay, HeLa cells were transfected with individual TF-PROTAC for 12 hours, followed by further plated into 6-well plate (1,000/well). Three weeks later, the cells were fixed in fixation buffer (acetic acid: methanol=1:7) and stained with 0.4% crystal violet in 20% ethanol. Then clonal number were quantified by Image J software. As various changes can be made in the above-described subject matter without departing from the scope and spirit of the present disclsoure, it is intended that all subject matter contained in the above description, or defined in the appended claims, be interpreted as descriptive and illustrative. Many modifications and variations of the present disclosure are possible in light of the above teachings. Accordingly, the present description is intended to embrace all such alternatives, modifications and variances which fall within the scope of the appended claims.

[3] = molecular target: T2, VHL E3 ubiquitin ligase and E2F1 transcription factor (Homo sapiens, UniProt P40337+Q01094+Q14186); experiment: GST pulldown assay of VHL E3 ligase complex and E2F1 with TF-PROTAC; format: binding; conditions: in vitro pulldown
T2 construct: made in house; host or cells: E. coli BL21(DE3) for the GST-VHL/Elongin B/C complex; HEK293T lysate for the transfected transcription factor
Protocol: (§2) pGEX-GST-VHL/ElonginB construct was kindly gift from Dr. William Kaelin, Jr. at Dana-Farber Cancer Institute, Harvard Medical School. pGEX-GST-Elongin C plasmid was generated by subcloning Elongin C CDS into the BamHI and Xhol sites of pGEX-4T1-GST vector. The GST-VHL/ElonginB/C complex was purified as described 43. Briefly, BL21(DE3) E. coli was cotransfected with pGEX-GST-VHL/ElonginB and pGEX-GSTElonginC plasmid. Protein expression was induced by 100 μM isopropyl beta-D-thiogalactopyranoside (IPTG, Fisher Scientific) at 18° C.overnight. Then, the bacterial culture was centrifuged and sonicated in PBS buffer with protease inhibitor cocktail. Protein lysates were further purified with glutathione-Sepharose beads (GE17-0756-05) and washed with PBS for 5 times.
(§3) Glutathione-Sepharose beads loaded with GST-VHL E3 ligase complex were incubated at 4° C. with cell lysate derived from HEK293T cells that ectopic transfected with individual transfection factor. After incubation for 3 hours, TF-PROTACs were added into the mixture for another 2 hours, followed by wash with NETN buffer for 3 times. The pulldown products were further separated by 10% SDS-PAGE and blotted for indicated proteins.

[4] = molecular target: T3, VHL E3-PROTAC-p65 ternary complex (Homo sapiens, UniProt P40337+Q04206); experiment: GST pulldown assay of VHL E3 ligase complex and p65 with TF-PROTAC; format: binding; conditions: GST-VHL complex from E. coli, HEK293T lysate with Flag-p65, in vitro
T3 construct: made in house; host or cells: E. coli BL21(DE3) for the GST-VHL/Elongin B/C complex; HEK293T lysate for Flag-p65
Text: Furthermore, dNF-κB is capable of recruiting VHL E3 ubiquitin ligase to POI, NF-κB. […] However, dNF-κB obtained in current stage could not efficiently promote the degradation of p65 in cells, which prompted further optimization of the length of linker between the VHL ligand and DNA oligomer moieties for achieving efficient destruction of NF-κB in cells.
as §2, §3

p65 [5] = molecular target: T4, p65 (Homo sapiens, UniProt P19838+Q04206); experiment: Western blot of p65 in HeLa cells transfected with TF-PROTAC; format: cell-based; conditions: 12 hours, dNF-κB #1-#18 compared
T4 construct: endogenous in cells; host or cells: HeLa
Protocol: (§4) Human embryonic kidney 293T (HEK293T) and HeLa cells were maintained in Dulbecco's Modified Eagle's Medium (DMEM) containing 10% fetal bovine serum (FBS), 100 Units/mL of penicillin and 100 μg/mL streptomycin. For ectopic expression of transcription factors, Flag-p65 and HA-E2F1 were transfected into HEK293T cells and harvested for lysis 48 hours after transfection. For TF-PROTACs treatment, HeLa cells in 12-well plate were transfected with individual TF-PROTAC for 12 hours, followed by harvest for western blot analysis. […] For depletion of endogenous VHL E3 ligase, two sgRNA for VHL E3 ligase were synthesized and inserted into lenti-CRISPR-V2 construct 40. The sgVHL lentivirus were generated in HEK293T cells as previously described 41-42 for infection of HeLa cells overnight, followed by selection with puromycin for 72 h.
Cells were lysed in EBC buffer supplemented with protease inhibitors cocktail and phosphatase inhibitors, and the protein concentrations were measured as described above. The lysates (40 ug protein) were then resolved by 10% SDS-PAGE at 130 V for 80 min and immunoblotted with indicated antibodies at 4° C. overnight, washed 4 times with Tris-buffered saline with 0.1% Tween-20 (TBST), incubated with secondary antibody for 1 hour at room temperature, and then washed 4 times with TBST buffer. Anti-p65 (#8742, 1:1,000) and E2F1 (#3742, 1:500) antibodies were purchased from Cell Signaling Technologies. Anti-HA antibody (#901513, 1:1,000) was purchased from Biolegend. Anti-Flag (F3165, 1:5,000), anti-vinculin antibody (V-4505, 1:50,000), peroxidase-conjugated anti-mouse secondary antibody (A-4416, 1:3,000) and peroxidase-conjugated anti-rabbit secondary antibody (A-4914, 1:3,000) were purchased from Sigma. All primary antibodies were diluted in 5% bovine serum albumin (BSA) in TBST buffer, and secondary antibodies were diluted in 5% non-fat milk in TBST buffer.

p65 [6] = molecular target: T1, p65; experiment: In vivo ubiquitination assay of p65 (Ni-NTA pulldown); format: cell-based; conditions: HEK293T cells, Flag-p65 24 hours, then dNF-κB 12 hours
Protocol: Denatured in vivo ubiquitination assays were performed as previously described 41. Briefly, HEK293T cells were firstly transfected with Flag-p65 or HA-E2F1 for 24 hours, followed by additional transfection of individual TF-PROTAC for another 12 hours. Before been harvested, HEK293T cells were treated with 30 μM of MG132 for 4 hours. After having been harvested in denatured buffer A (6 M guanidine-HCI, pH 8.0, 0.1 M Na2HPO4/NaH2PO4, and 10 mM imidazole) and sonication for 10 seconds, cell lysis was incubation with Ni-nitrilotriacetic acid (NTA) matrices under rotation for 3 hours at room temperature. The pulldown products were washed sequentially twice in buffer A, twice in buffer A/TI mixture (buffer A, buffer TI=1:3, v/v), and once in buffer TI (25 mM tris-HCl, pH 6.8, and 20 mM imidazole). The ubiquitinated proteins were finally separated by 7% SDS-PAGE and blotted with individual antibody.
Target sequence in this assay (Q04206 whole entry): as above

HeLa cells [7] = experiment: Cell growth curve assay (cell number); format: cell-based, human; conditions: 10 ug/mL
Protocol: as §1

p65 [8] = molecular target: T1, p65; experiment: Western blot of p65 in HeLa cells transfected with TF-PROTAC; format: cell-based; set-up: endogenous in cells; host or cells: HeLa; conditions: 10 uM MG132
Protocol: as §4
Target sequence in this assay (Q04206 whole entry): as above
Target sequence in this assay (P19838 1-433 limits assumed, further chain): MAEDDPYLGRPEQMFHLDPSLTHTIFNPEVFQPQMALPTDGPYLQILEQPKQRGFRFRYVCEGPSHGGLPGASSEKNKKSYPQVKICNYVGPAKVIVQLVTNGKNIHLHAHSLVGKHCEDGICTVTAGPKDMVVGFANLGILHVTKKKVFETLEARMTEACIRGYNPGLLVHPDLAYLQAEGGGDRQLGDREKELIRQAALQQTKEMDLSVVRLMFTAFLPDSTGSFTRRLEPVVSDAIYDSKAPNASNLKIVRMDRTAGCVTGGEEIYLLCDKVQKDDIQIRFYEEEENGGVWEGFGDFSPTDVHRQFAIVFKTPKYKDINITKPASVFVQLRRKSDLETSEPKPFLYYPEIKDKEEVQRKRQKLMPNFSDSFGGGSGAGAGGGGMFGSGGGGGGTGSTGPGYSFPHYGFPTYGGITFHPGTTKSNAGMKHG
Cells were lysed in EBC buffer supplemented with protease inhibitors cocktail and phosphatase inhibitors, and the protein concentrations were measured as described above. The lysates (40 ug protein) were then resolved by 10% SDS-PAGE at 130 V for 80 min and immunoblotted with indicated antibodies at 4° C. overnight, washed 4 times with Tris-buffered saline with 0.1% Tween-20 (TBST), incubated with secondary antibody for 1 hour at room temperature, and then washed 4 times with TBST buffer. […]

T3 sequence (P40337 whole entry): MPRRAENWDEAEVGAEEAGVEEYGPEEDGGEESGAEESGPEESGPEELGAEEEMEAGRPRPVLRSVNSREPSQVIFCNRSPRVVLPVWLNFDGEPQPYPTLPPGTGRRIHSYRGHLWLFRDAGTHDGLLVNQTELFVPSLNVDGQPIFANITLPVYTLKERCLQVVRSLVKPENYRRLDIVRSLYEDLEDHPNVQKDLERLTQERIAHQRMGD
T3 sequence (Q15370 whole entry partner): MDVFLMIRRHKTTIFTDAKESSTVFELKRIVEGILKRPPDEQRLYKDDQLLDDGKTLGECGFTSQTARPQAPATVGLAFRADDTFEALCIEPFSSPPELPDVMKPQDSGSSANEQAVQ
T3 sequence (Q15369 whole entry partner): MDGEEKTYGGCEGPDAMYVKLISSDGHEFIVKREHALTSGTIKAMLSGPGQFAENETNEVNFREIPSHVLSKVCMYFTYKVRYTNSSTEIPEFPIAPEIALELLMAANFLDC
T3 sequence (Q04206 whole entry): as the sequence (Q04206 whole entry) above
T4 sequence (Q04206 whole entry): as above
T4 sequence (P19838 1-433 limits assumed): as the sequence (P19838 1-433 limits assumed, further chain) above
T2 sequence (P40337 whole entry): as the sequence (P40337 whole entry) above
T2 sequence (Q15370 whole entry partner): as the sequence (Q15370 whole entry partner) above
T2 sequence (Q15369 whole entry partner): as the sequence (Q15369 whole entry partner) above
T2 sequence (Q01094 whole entry): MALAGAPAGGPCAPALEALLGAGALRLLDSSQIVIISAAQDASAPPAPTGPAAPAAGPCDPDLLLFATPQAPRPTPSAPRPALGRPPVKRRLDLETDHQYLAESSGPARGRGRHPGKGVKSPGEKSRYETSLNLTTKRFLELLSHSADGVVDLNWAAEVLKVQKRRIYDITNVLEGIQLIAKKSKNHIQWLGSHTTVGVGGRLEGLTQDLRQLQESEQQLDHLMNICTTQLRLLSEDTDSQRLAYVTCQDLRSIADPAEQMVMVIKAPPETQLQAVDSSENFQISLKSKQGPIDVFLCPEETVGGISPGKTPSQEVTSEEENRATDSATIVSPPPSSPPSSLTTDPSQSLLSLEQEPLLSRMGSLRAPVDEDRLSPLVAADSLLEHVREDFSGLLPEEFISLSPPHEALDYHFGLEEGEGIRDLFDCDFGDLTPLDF
T2 sequence (Q14186 whole entry): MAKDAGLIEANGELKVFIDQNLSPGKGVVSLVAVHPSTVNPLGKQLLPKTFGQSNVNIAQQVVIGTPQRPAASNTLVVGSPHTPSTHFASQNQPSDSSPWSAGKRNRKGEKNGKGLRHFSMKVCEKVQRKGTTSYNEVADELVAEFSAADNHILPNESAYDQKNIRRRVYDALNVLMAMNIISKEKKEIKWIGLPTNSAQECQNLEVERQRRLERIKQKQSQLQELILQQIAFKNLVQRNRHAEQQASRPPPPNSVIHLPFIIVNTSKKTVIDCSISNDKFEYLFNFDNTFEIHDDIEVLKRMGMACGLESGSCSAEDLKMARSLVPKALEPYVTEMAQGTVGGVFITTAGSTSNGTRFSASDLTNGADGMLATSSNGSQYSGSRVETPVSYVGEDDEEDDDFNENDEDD

Substance | competition with Biotin-NF-κB-ODN for binding to p65 (p65 [1]) | VHL E3 ligase-p65 binding (ternary complex) induced by PROTAC [4] | p65 signal / degradation efficiency in western blot (p65 [5]) | ubiquitination of p65 in cells (p65 [6]) | other results
5′-TGGGGACTTTCCAGTTTCTGGAAAGTCCCCA-3′ (chemistry not given here) [NF-κB-ODN, reference compound] | competed with Biotin-NF-κB-ODN for the binding with p65 | – | – | – | tumorigenesis ability (colony formation) (HeLa cells [2]): not
N3-NF-κB-ODN: azide modification version of NF-κB-ODN, azide group on the 5′ end through the 5′ amino modifier C6 (TGGGGACTTTCCAGTTTCTGGAAAGTCCCCA; chemistry not fully specified) [Compound N3-NF-κB-ODN] | competed with Biotin-NF-κB-ODN for the binding with p65 | – | – | – | –
dE2F #15 (chain 1 CTAGATTTCCCGCG; chain 2 CTAGCGCGGGAAAT; DNA, backbone and methylation of C not given here; further chemistry not fully specified) | – | – | – | – | binding between VHL E3 ubiquitin ligase and E2F1 recruited by PROTAC [3]: recruited the binding between the VHL E3 ubiquitin ligase and E2F1 transcription factor in vitro
dNF-κB #1 (TGGGGACTTTCCAGTTTCTGGAAAGTCCCCA; DNA, backbone and methylation of C not given here; further chemistry not fully specified) | competed with Biotin NF-κB for binding to RelA/p65 | induced the VHL E3-PROTAC-p65 ternary complex formation | – | – | –
dNF-κB #4 (TGGGGACTTTCCAGTTTCTGGAAAGTCCCCA; VHL ligand conjugate via C4 linker, further chemistry not given here) | – | recruited the binding between the VHL E3 ubiquitin ligase and p65 in vitro | lowest p65 signal | lead to the ubiquitination of p65 in cells | –
dNF-κB #7 (TGGGGACTTTCCAGTTTCTGGAAAGTCCCCA; VHL ligand conjugate via C7 linker, further chemistry not given here) | – | recruited the binding between the VHL E3 ubiquitin ligase and p65 in vitro | lowest p65 signal | lead to the ubiquitination of p65 in cells | –
dNF-κB #15 (TGGGGACTTTCCAGTTTCTGGAAAGTCCCCA; decoy; VHL ligand conjugate via PEG2 linker, further chemistry not given here) | – | recruited the binding between the VHL E3 ubiquitin ligase and p65 in vitro | lowest p65 signal; also recorded: best degradation efficiency | lead to the ubiquitination of p65 in cells | proliferation of HeLa cells (cell number) (HeLa cells [7]): repressed the proliferation of HeLa cells; tumorigenesis ability (colony formation) (HeLa cells [2]): inhibited; degradation of endogenous p65 under proteasome inhibitor MG132 (p65 [8]): blocked the degradation of endogenous p65
dNF-κB #18 (TGGGGACTTTCCAGTTTCTGGAAAGTCCCCA; decoy; VHL ligand conjugate via PEG5 linker, further chemistry not given here) | – | recruited the binding between the VHL E3 ubiquitin ligase and p65 in vitro | lowest p65 signal | lead to the ubiquitination of p65 in cells | –
